From PubChem BioAssay AID687005 (Broad Institute, 2013)
Results filed as inconclusive are left out. Activity calls are given as the source filed them.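 The calls were made as follows: active = Compounds that reduce signal, with fitted half-maximal dose at or under twice the top valid tested dose; inconclusive = Poor fit, or flat curve losing 30 to 70% of signal; inactive = Potency past limit, flat within 30%, or opposite direction.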

Assay: HEK293T cell cytotoxicity, dose response, cytotoxicity control, ATP luminescence, cherry-pick samples (AID 687005)
Settings: HEK293T viability, ATP luminescence (CellTiter-Glo), 48 h; at 23.5 µM (top of the series)

SMILES	activity change, negative = cytotoxicity
C[C@@H]1CN([C@H](C)CO)C(=O)c2cc(NS(=O)(=O)c3ccccc3)ccc2O[C@H]1CN(C)C(=O)NC1CCCCC1	-10.5% (inactive)
C[C@@H]1CN([C@H](C)CO)C(=O)c2cc(NC(=O)CCC(F)(F)F)ccc2O[C@@H](C)CCCCO[C@@H]1CN(C)C(=O)c1ccncc1	-15.4% (inactive)
C[C@@H]1CN([C@H](C)CO)C(=O)c2cc(NC(=O)Nc3cccc4ccccc34)ccc2O[C@H]1CN(C)C(=O)Nc1ccc(C(F)(F)F)cc1	-31% (inactive)
COCCNC(=O)C[C@@H]1C[C@H]2c3cc(NC(=O)C4CCOCC4)ccc3O[C@H]2[C@H](CO)O1	25.9% (inactive)
Cc1noc(C)c1S(=O)(=O)Nc1ccc2c(c1)CC(=O)N([C@@H](C)CO)C[C@@H](C)[C@@H](CN(C)S(=O)(=O)c1cccs1)O2	-16.9% (inactive)
C[C@@H]1CCCCO[C@@H](CN(C)Cc2ccc(C(F)(F)F)cc2)[C@@H](C)CN([C@@H](C)CO)C(=O)c2cc(NS(=O)(=O)c3cn(C)cn3)ccc2O1	-31.2% (inactive)
C[C@H](CO)N1C[C@H](C)[C@H](CN(C)C(=O)Nc2cccc3ccccc23)Oc2ccc(NC(=O)Cc3ccccc3)cc2CC1=O	10.3% (inactive)
Cc1noc(C)c1NC(=O)N(C)C[C@H]1Oc2ccc(NS(=O)(=O)c3cn(C)cn3)cc2CC(=O)N([C@H](C)CO)C[C@H]1C	-32.1% (inactive)
CN1C(=O)c2cc(NS(C)(=O)=O)ccc2OC[C@@H]2O[C@@H](CC(=O)O)CC[C@@H]21	-2.71% (inactive)
Cc1noc(C)c1S(=O)(=O)Nc1ccc2c(c1)CC(=O)N([C@H](C)CO)C[C@H](C)[C@H](CN(C)S(=O)(=O)c1cccs1)O2	-4.72% (inactive)
CC(C)NC(=O)Nc1ccc2c(c1)C(=O)N([C@@H](C)CO)C[C@@H](C)[C@@H](CN(C)C(=O)NC1CCCCC1)OCCCC[C@H](C)O2	-7.35% (inactive)
O=C(C[C@H]1CC[C@@H]2[C@H](COC[C@@H](O)CN2Cc2cccc(C(F)(F)F)c2)O1)NCc1ccc(Cl)cc1	16.8% (inactive)

Same assay, conditions: HEK293T viability, ATP luminescence (CellTiter-Glo), 48 h; at 26 µM (top of the series)

SMILES	activity change, negative = cytotoxicity
CO[C@H]1CC[C@H]2CCOc3c(C#N)cccc3C(=O)N(C)C[C@@H](C)C(=O)N(C)C[C@H]1O2	-16.5% (inactive)
O=C(NCCc1ccccc1)[C@@H]1[C@@H](CO)[C@@H]2Cn3c(cccc3=O)[C@H]1N2C(=O)C1CCC1	8.28% (inactive)
CNC(=O)C[C@H]1CC[C@H]2[C@H](COc3ccc(NC(=O)Nc4ccccc4)cc3C(=O)N2C)O1	-20.5% (inactive)
O=C(NC(=S)Nc1ccccc1N1CCCC1)c1ccc([N+](=O)[O-])cc1	-8.4% (inactive)
CCC(C)(C(=O)NC1CCCC1)N(C(C)=O)c1ccc(C)cc1 (centres undefined)	9.31% (inactive)
O=C(C[C@@H]1CC[C@H]2[C@@H](COC[C@H](O)CN2Cc2ccccc2F)O1)NC1CCC1	-8.5% (inactive)
Cc1cc(C(=O)NC(=S)Nc2ccccc2N2CCCC2)ccc1[N+](=O)[O-]	-6.6% (inactive)
CO[C@H]1CC[C@@H]2CCOc3c(C#N)cccc3C(=O)N(C)C[C@H](OC)[C@@H](C)C(=O)N(C)C[C@@H]1O2	-0.939% (inactive)
COc1ccc(CN(C)C[C@H]2Oc3ccc(NS(C)(=O)=O)cc3CC(=O)N([C@@H](C)CO)C[C@H]2C)cc1	-1.35% (inactive)
CCCNC(=O)N1C[C@@H](O)COC[C@H]2O[C@H](CC(=O)N3CCN(C)CC3)CC[C@@H]21	-7.83% (inactive)
CC(=O)NNC(=O)CSc1nnc(-c2ccccc2)c(-c2ccccc2)n1	-4.35% (inactive)
CO[C@@H]1CN(C)C(=O)c2cc(NS(=O)(=O)c3ccc(C)cc3)ccc2OC[C@@H](C)N(C)C[C@@H]1C	5.91% (inactive)
CO[C@@H]1CN(C)C(=O)c2ccc(NC(=O)C3CC3)cc2OC[C@H](C)N(Cc2ccc(F)cc2)C[C@H]1C	-10.4% (inactive)
C[C@@H]1CN([C@@H](C)CO)C(=O)CCCn2cc(nn2)CO[C@@H]1CN(C)C(=O)NC1CCCC1	5.64% (inactive)
CN1C(=O)N[C@@H]2c3ccccc3O[C@@]1(C)[C@@H]2COC(=O)c1ccccc1	-8.64% (inactive)
C[C@H](CO)N1C[C@H](C)[C@@H](CN(C)S(=O)(=O)c2ccccc2)Oc2c(NC(=O)Nc3cccc4ccccc34)cccc2C1=O	35.2% (inactive)
C[C@H](CO)N1C[C@H](C)[C@@H](CN(C)C(=O)C2CCOCC2)Oc2ncc(C#CCc3ccccc3)cc2C1=O	6.08% (inactive)
C[C@H](O)C#Cc1ccc2c(c1)O[C@H](CN(C)C(=O)C1CCCCC1)[C@H](C)CN([C@@H](C)CO)S2(=O)=O	34.3% (inactive)
O=C(c1cccc(F)c1)N1C[C@H]2[C@@H](c3ccccc31)[C@@H](CO)N2Cc1cocn1	-0.298% (inactive)
CC(C)NC(=O)Nc1ccc2c(c1)C(=O)N([C@@H](C)CO)C[C@H](C)[C@@H](CN(C)C(=O)CCC(F)(F)F)OCCCC[C@H](C)O2	42.8% (inactive)
C=CCNC(=O)CN(c1ccc(F)cc1)S(=O)(=O)c1ccc(OC)cc1	-6.42% (inactive)
COc1ccccc1NC(=S)NCc1ccc(Cl)cc1	-4.64% (inactive)
C/C=C/c1cnc2c(c1)C(=O)N([C@@H](C)CO)C[C@@H](C)[C@@H](CN(C)C(=O)C1CCCCC1)O2	10.3% (inactive)
CCC(C)c1ccc(NC(=S)N2CCN(c3ccccn3)CC2)cc1 (centres undefined)	13.7% (inactive)
CC(C)NC(=O)Nc1ccc2c(c1)CC(=O)N([C@@H](C)CO)C[C@@H](C)[C@@H](CN(C)Cc1ccc(Oc3ccccc3)cc1)O2	-58.4% (inactive)
Cc1ccc(N(C(=O)C2CCC(=O)N2)C2(C(=O)NC3CCCC3)CCCCC2)cc1 (centres undefined)	-43.5% (inactive)

SMILES	activity change, negative = cytotoxicity
COc1ccccc1C#Cc1ccc2c(c1)O[C@H](CN(C)C(C)=O)[C@H](C)CN([C@@H](C)CO)S2(=O)=O	-7.15% (inactive)
CO[C@H]1CN(C)C(=O)c2cc(NC(=O)c3ccccc3F)ccc2OC[C@H](C)N(C(C)=O)C[C@H]1C	-16.7% (inactive)
CCCNC(=O)C[C@@H]1CC[C@H]2[C@@H](COC[C@H](O)CN2Cc2ccccc2F)O1	22.6% (inactive)
Cc1cccc(C)c1NC(=S)NN(Cc1ccccc1)c1ccccc1	15.7% (inactive)
CCCN1C[C@@H](C)[C@H](OC)CN(C)C(=O)c2ccc(NC(=O)c3cccc(F)c3)cc2OC[C@@H]1C	-7.98% (inactive)
COc1ccc(-c2cnc3c(c2)C(=O)N([C@@H](C)CO)C[C@@H](C)[C@@H](CN(C)S(C)(=O)=O)O3)cc1	6.27% (inactive)
C[C@H]1CN([C@@H](C)CO)C(=O)Cc2cc(NS(=O)(=O)c3cn(C)cn3)ccc2O[C@@H]1CN(C)Cc1ccc(Oc2ccccc2)cc1	28.9% (inactive)
Cc1ccc(C)c(NC(=O)C2CCCN2C(=O)NC2CCCCC2)c1 (centres undefined)	25.9% (inactive)
C[C@H]1CN([C@@H](C)CO)C(=O)Cc2cc(NC(=O)CCCCCC(=O)Nc3ccccc3N)ccc2O[C@H]1CN(C)C(=O)Nc1ccccc1	-5.33% (inactive)
C[C@H](CO)N1C[C@H](C)[C@H](CN(C)S(=O)(=O)c2ccccc2)Oc2ccc(NS(=O)(=O)c3ccc(F)cc3)cc2C1=O	-25.5% (inactive)
O=C(C[C@H]1CC[C@H]2[C@@H](COC[C@@H](O)CN2C(=O)Nc2ccc(Cl)cc2)O1)N1CCCCC1	25.8% (inactive)
CC(=O)c1cccc(NC(=S)NC2CCCCC2)c1	-7.11% (inactive)
COCCNC(=O)C[C@@H]1C[C@@H]2c3cc(NC(=O)C4CCOCC4)ccc3O[C@@H]2[C@@H](CO)O1	-3.7% (inactive)
CCCC(=O)Nc1ccc2c(c1)OC[C@H](C)N(Cc1ccccn1)C[C@H](C)[C@H](OC)CN(C)C2=O	16.2% (inactive)
C[C@@H]1CN([C@H](C)CO)C(=O)c2cc(C3=CCCCC3)cnc2O[C@H]1CN(C)C(=O)Cc1cccnc1	-11.9% (inactive)
CCNC(=O)CN(c1ccc(Cl)cc1)S(=O)(=O)c1ccccc1	4.12% (inactive)
COc1ccc(NC(=O)N(C)C[C@H]2OCCCC[C@@H](C)Oc3ccc(NC(=O)c4ccccc4)cc3C(=O)N([C@H](C)CO)C[C@H]2C)cc1	-27.5% (inactive)
CNC(=O)C[C@@H]1CC[C@@H]2[C@H](COC[C@@H](O)CN2C(=O)Nc2ccc3c(c2)OCO3)O1	25% (inactive)
Cc1cc(C)c(NC(=O)C2CCCN2CCO)c(C)c1 (centres undefined)	-10.1% (inactive)
COc1cccc(S(=O)(=O)Nc2ccc3c(c2)[C@@H]2C[C@H](CC(=O)NC4CCCCC4)O[C@H](CO)[C@@H]2O3)c1	-27.9% (inactive)
COc1cccc(CNC(=O)COc2ccc(C(=O)c3ccccc3)cc2)c1	10% (inactive)
C[C@H](NC(=O)C[C@@H]1CC[C@@H]2[C@H](COC[C@@H](O)CN2C(=O)Nc2cccc(F)c2)O1)c1ccccc1	-12.7% (inactive)
Cc1ccc(S(=O)(=O)N(C)C[C@H]2Oc3c(cccc3N(C)C)C(=O)N([C@@H](C)CO)C[C@H]2C)cc1	-16.9% (inactive)
CCNC(=O)C[C@H]1CC[C@@H](NC(=O)NC2CCCCC2)[C@H](CO)O1	-2.42% (inactive)
C[C@@H]1CN([C@@H](C)CO)C(=O)Cc2cc(NC(=O)Nc3cccc4ccccc34)ccc2O[C@@H]1CN(C)S(=O)(=O)c1cccs1	153% (inactive)

Same assay, conditions: HEK293T viability, ATP luminescence (CellTiter-Glo), 48 h; at 28.5 µM (top of the series)

SMILES	activity change, negative = cytotoxicity
Cc1ccc(N(CC(N)=O)S(=O)(=O)c2ccc(F)cc2)cc1	-28% (inactive)
